By IC50 is commonly meant the midpoint of a concentration-inhibition curve.

The source of these data is ChEMBL document CHEMBL1134316, “Identification of dipeptidyl nitriles as potent and selective inhibitors of cathepsin B through structure-based drug design” (J Med Chem, 2001).

For one experiment, the target named is Cathepsin B (Homo sapiens, UniProt P07858). As to the kind of experiment: Inhibitory activity against recombinant human cathepsin B (cat B) expressed in baculovirus.
The target in the next experiment is Cathepsin S (Homo sapiens, UniProt P25774). As to the kind of experiment: Inhibitory activity against recombinant human cathepsin S (cat S) expressed in baculovirus.
The next experiment concerns the target Procathepsin L (Homo sapiens, UniProt P07711). As to the kind of experiment: Inhibitory activity against recombinant human cathepsin L (cat L) expressed in baculovirus.

Cathepsin S, sequence (P25774 whole entry): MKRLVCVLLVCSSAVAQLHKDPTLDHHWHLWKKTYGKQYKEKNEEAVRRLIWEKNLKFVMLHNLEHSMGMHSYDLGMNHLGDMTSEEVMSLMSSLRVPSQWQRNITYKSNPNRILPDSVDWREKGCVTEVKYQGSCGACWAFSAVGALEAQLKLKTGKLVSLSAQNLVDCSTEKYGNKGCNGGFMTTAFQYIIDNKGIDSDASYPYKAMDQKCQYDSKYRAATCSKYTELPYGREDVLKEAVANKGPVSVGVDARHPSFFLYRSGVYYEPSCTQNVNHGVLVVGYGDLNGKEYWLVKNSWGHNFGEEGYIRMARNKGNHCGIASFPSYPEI
Procathepsin L, sequence (P07711 whole entry): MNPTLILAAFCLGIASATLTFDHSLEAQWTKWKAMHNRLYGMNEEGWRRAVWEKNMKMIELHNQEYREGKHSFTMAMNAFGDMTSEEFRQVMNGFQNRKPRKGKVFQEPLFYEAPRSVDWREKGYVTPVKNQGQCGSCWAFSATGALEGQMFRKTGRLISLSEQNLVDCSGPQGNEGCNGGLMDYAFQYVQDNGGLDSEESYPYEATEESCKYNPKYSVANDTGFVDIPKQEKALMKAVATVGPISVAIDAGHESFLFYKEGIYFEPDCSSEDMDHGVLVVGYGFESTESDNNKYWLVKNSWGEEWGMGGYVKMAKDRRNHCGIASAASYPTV

Turning to `Cc1cc(C)cc(C[C@H](NC(=O)C(c2ccccc2)c2ccccc2)C(=O)NCC#N)c1`, the half-inhibitory concentration (IC50) on Cathepsin B was determined as 0.0119 µM.

On to `Cc1cccc(C[C@H](NC(=O)c2ccccc2)C(=O)N[C@H](C#N)COCc2cccc(C(=O)O)c2)c1`, for which, at Cathepsin B, the IC50 was determined as 0.0094 µM.

For `Cc1cccc(C[C@H](NC(=O)c2ccc(Cl)cc2F)C(=O)NCC#N)c1`, the half-maximal inhibitory concentration (IC50) at Cathepsin B was determined as 0.072 µM.

In the case of `Cc1cccc(C[C@H](NC(=O)c2ccc(F)cc2F)C(=O)NCC#N)c1`, at Cathepsin B, the half-maximal inhibitory concentration (IC50) was determined as 0.591 µM. In the case of `Cc1cccc(C[C@H](NC(=O)c2ccc(F)cc2F)C(=O)N[C@H](C#N)CCCc2cccc(C(=O)O)c2)c1`, the IC50 at Cathepsin B worked out at 0.11 µM. As to `N#CCNC(=O)[C@H](Cc1cccc(C(=N)N)c1)NC(=O)C(c1ccccc1)c1ccccc1`, on Cathepsin B, the IC50 is over 1 µM. Regarding `Cc1cncc(C[C@H](NC(=O)C(c2ccccc2)c2ccccc2)C(=O)NCC#N)c1`, on Cathepsin B, the half-maximal inhibitory concentration (IC50) turned out to be 0.652 µM.

Regarding `Cc1cccc(C[C@H](NC(=O)c2ccccc2)C(=O)NCC#N)c1`, at Cathepsin B, the IC50 was determined as 1.9 µM. `N#CCNC(=O)[C@H](Cc1ccc(I)cc1)NC(=O)C(c1ccccc1)c1ccccc1`: the IC50 on Cathepsin B was over 1 µM. For `N#CCNC(=O)[C@H](Cc1cccc(Cl)c1)NC(=O)C(c1ccccc1)c1ccccc1`, the 50% inhibitory concentration (IC50) at Cathepsin B is 0.13 µM. For the compound `Cc1cccc(C[C@H](NC(=O)c2ccc(Cl)cc2)C(=O)NCC#N)c1`, the IC50 on Cathepsin B came to 0.308 µM. For the compound `N#CCNC(=O)[C@H](Cc1cccc(I)c1)NC(=O)C(c1ccccc1)c1ccccc1`, the IC50 on Cathepsin B was 0.121 µM. Regarding `Cc1cccc(C[C@H](NC(=O)C(c2ccccc2)c2ccccc2)C(=O)N[C@H](C#N)COCc2cccc(CO)c2)c1`, the 50% inhibitory concentration (IC50) on Cathepsin B came to 0.029 µM. For `CCCCC(=O)N[C@@H](Cc1cccc(C)c1)C(=O)N[C@H](C#N)COCc1cccc(C(=O)O)c1`, the IC50 at Cathepsin B worked out at 0.0357 µM.

In the case of `N#CCNC(=O)[C@H](Cc1ccccc1)NC(=O)Cc1ccccc1`, the figures for the IC50 at Cathepsin S, at Cathepsin B and at Procathepsin L were 0.226 µM, 34 µM and 0.17 µM, respectively. Regarding `N#CCNC(=O)[C@H](Cc1ccccc1)NC(=O)C(c1ccccc1)c1ccccc1`, the IC50 was 0.048 µM at Cathepsin S, 0.496 µM at Cathepsin B and 0.031 µM on Procathepsin L. `CCCCC(=O)N[C@@H](Cc1cccc(C)c1)C(=O)NCC#N`: the IC50 at Cathepsin B stood at 3 µM. Turning to `Cc1cccc(C[C@H](NC(=O)c2ccc(Cl)cc2F)C(=O)N[C@H](C#N)COCc2ccccc2)c1`, the half-inhibitory concentration (IC50) on Cathepsin B came to 0.0169 µM.

For `N#CCNC(=O)[C@H](Cc1ccccc1)NC(=O)OCc1ccccc1`, the concentration for half-maximal inhibition (IC50) on Cathepsin B came out at 62 µM. Take `COC(=O)c1cccc(COC[C@@H](C#N)NC(=O)[C@H](Cc2cccc(C)c2)NC(=O)C(c2ccccc2)c2ccccc2)c1`: at Cathepsin B, the IC50 was determined as 0.047 µM.

Regarding `CCc1cccc(C[C@H](NC(=O)C(c2ccccc2)c2ccccc2)C(=O)NCC#N)c1`, on Cathepsin B, the IC50 came out at 0.136 µM. For `Cc1cccc(C[C@H](NC(=O)c2ccc(F)cc2F)C(=O)N[C@H](C#N)COCc2ccccc2)c1`, on Cathepsin B, the concentration for half-maximal inhibition (IC50) turned out to be 0.042 µM.

On to `Cc1cccc(C[C@H](NC(=O)C(c2ccccc2)c2ccccc2)C(=O)N[C@H](C#N)CCOc2cccc(C(=O)O)c2)c1`, for which the IC50 on Cathepsin B was determined as 0.138 µM.

For the compound `Cc1cccc(C[C@H](NC(=O)c2ccc(Cl)cc2F)C(=O)N[C@H](C#N)COCc2cccc(C(=O)O)c2)c1`, the IC50 at Cathepsin B worked out at 0.002 µM. Still for that read-out and setting: next, `Cc1cc(CN)cc(C[C@H](NC(=O)C(c2ccccc2)c2ccccc2)C(=O)NCC#N)c1`: 0.358 µM; `Cc1cccc(C[C@H](NC(=O)c2ccc(Cl)c(Cl)c2)C(=O)NCC#N)c1`: 0.0313 µM; `Cc1cccc(C[C@H](NC(=O)C(c2ccccc2)c2ccccc2)C(=O)N[C@H](C#N)COCc2ccccc2)c1`: 0.0102 µM. Consider `Cc1cccc(C[C@H](NC(=O)C(c2ccccc2)c2ccccc2)C(=O)N[C@H](C#N)COCc2ccc(C(=O)O)cc2)c1`, for which, on Cathepsin B, the concentration for half-maximal inhibition (IC50) worked out at 0.0307 µM. `Cc1cccc(C[C@H](NC(=O)C(c2ccccc2)c2ccccc2)C(=O)N[C@H](C#N)CCCc2cccc(C(=O)O)c2)c1`: the half-inhibitory concentration (IC50) at Cathepsin B stood at 0.018 µM. As to `Cc1cccc(C[C@H](NC(=O)C(c2ccccc2)c2ccccc2)C(=O)N[C@H](C#N)CC#Cc2cccc(C(=O)O)c2)c1`, the IC50 on Cathepsin B came out at 0.0056 µM.
